These results are taken from patent publication US7482338B2 (priority 2003, dated 2009).

The target in the test is α7 nAChR subtype (Rattus norvegicus, UniProt Q05941). It is filed as binding. The conditions noted are these: read-out: KD of radioligand (saturation curve, one site model).
Chain of α7 nAChR subtype (Q05941 23-502 limits assumed): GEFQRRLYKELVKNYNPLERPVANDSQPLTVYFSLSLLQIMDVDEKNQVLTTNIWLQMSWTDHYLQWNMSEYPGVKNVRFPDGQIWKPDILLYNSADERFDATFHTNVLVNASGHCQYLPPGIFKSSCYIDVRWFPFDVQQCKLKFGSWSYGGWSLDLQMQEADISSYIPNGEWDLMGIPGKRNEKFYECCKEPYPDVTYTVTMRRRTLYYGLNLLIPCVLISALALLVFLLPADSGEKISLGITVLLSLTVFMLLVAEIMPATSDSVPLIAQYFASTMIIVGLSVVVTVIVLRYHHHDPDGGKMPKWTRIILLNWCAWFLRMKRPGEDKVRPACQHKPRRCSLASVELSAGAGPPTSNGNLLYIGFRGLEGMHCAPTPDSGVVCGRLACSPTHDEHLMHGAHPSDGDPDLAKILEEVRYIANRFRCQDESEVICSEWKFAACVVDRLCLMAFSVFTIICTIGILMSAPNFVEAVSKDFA

With [^125I]-α-Bungarotoxin [[^125I]-α-BTX], the Kd came out at 1.67 nM.
